Results published in ChEMBL document CHEMBL4118186 (Bioorg Med Chem Lett, 2018).
pIC50: −log10 of the molar value.

system: not listed separately; test: Metabolic stability in human liver microsomes at 1 uM preincubated for 5 mins followed by NADP+ addition measured up to 40 mins by LC/MS method; type: ADME, microsome

| Stability | SMILES |
| --- | --- |
| Stable | CC(C)C[C@H](NC(=O)[C@H](Cc1ccccc1)NCc1ccccc1)B(O)O |

target: T1, Proteasome Macropain subunit MB1 (Homo sapiens, UniProt P28074); test: Inhibition of chymotrypsin-like activity of human 20S proteasome using Suc-Leu-Leu-Val-Tyr-AMC as substrate after 1 hr by fluorescence analysis
T1 sequence (P28074 whole entry): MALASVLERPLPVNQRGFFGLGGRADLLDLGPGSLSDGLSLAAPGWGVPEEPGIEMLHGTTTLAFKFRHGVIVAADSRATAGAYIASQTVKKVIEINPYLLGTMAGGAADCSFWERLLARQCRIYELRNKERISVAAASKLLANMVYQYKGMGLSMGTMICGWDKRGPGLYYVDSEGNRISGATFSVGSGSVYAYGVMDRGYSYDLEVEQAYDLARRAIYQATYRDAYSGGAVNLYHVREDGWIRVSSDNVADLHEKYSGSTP

| SMILES | pIC50 |
| --- | --- |
| CC(C)C[C@H](NC(=O)[C@H](Cc1ccccc1)OCc1cccc2ccccc12)B(O)O | 6.96 |
| CC(C)C[C@H](NC(=O)[C@H](Cc1ccccc1)NCc1cnccn1)B(O)O | 7.19 |
| CC(C)C[C@H](NC(=O)[C@H](Cc1ccccc1)Oc1cccc2ccccc12)B(O)O | 6.56 |
| CC(C)C[C@H](NC(=O)[C@H](Cc1ccccc1)OCc1cnccn1)B(O)O | 7.28 |
| CC(C)C[C@H](NC(=O)[C@H](Cc1ccccc1)Oc1cnccn1)B(O)O | 6.81 |
| CC(C)C[C@H](NC(=O)[C@H](Cc1ccccc1)Nc1cnccn1)B(O)O | 6.72 |
| CC(C)C[C@H](NC(=O)[C@H](Cc1ccccc1)Nc1cccc2ccccc12)B(O)O | 6.78 |

More lines, now with the values ahead:

| pIC50 | SMILES |
| --- | --- |
| 7.44 | CC(C)C[C@H](NC(=O)[C@H](Cc1ccccc1)OCc1ccccc1)B(O)O |
| 8.01 | CC(C)C[C@H](NC(=O)[C@H](Cc1ccccc1)NCc1ccccc1)B(O)O |
| 6.90 | CC(C)C[C@H](NC(=O)[C@H](Cc1ccccc1)Oc1ccccc1)B(O)O |
| 7.04 | CC(C)C[C@H](NC(=O)[C@H](Cc1ccccc1)NCc1cccc2ccccc12)B(O)O |
| 6.47 | CC(C)C[C@H](NC(=O)[C@H](Cc1ccccc1)Nc1ccccc1)B(O)O |

system: not listed separately; test: Metabolic stability in BALB/c mouse liver microsomes at 1 uM preincubated for 5 mins followed by NADP+ addition measured up to 40 mins by LC/MS method; type: ADME, microsome

| Stability | SMILES |
| --- | --- |
| Stable | CC(C)C[C@H](NC(=O)[C@H](Cc1ccccc1)NCc1ccccc1)B(O)O |
